Experimental data as given in ChEMBL document CHEMBL5512674, “Novel Acyl Thiourea-Based Hydrophobic Tagging Degraders Exert Potent Anti-Influenza Activity through Two Distinct Endonuclease Polymerase Acidic-Targeted Degradation Pathways” (J Med Chem, 2024).
Active and inactive are the calls of the source. No cut-off for these calls is given here.

Tests used:
[1] = Hepatic extraction ratio in dog liver microsomes preincubated for 5 mins followed by NADPH addition and measured for 45 mins by LC-MS analysis; format: ADME, Canis lupus familiaris, Microsome; conditions: time 50 min, read-out: ERH
[2] = Hepatic extraction ratio in mouse liver microsomes preincubated for 5 mins followed by NADPH addition and measured for 45 mins by LC-MS analysis; format: ADME, Microsome; conditions: time 50 min, read-out: ERH
[3] = Hepatic extraction ratio in human liver microsomes preincubated for 5 mins followed by NADPH addition and measured for 45 mins by LC-MS analysis; format: ADME, Microsome; conditions: time 50 min, read-out: ERH
[4] = Cytotoxicity against human HEK293T cells assessed as reduction in cell viability incubated for 48 hrs by CCK-8 assay; format: toxicity, cell-based, HEK-293T
[5] = target: T1, von Hippel-Lindau disease tumor suppressor/Polymerase basic protein 1 (Influenza A virus (strain A/Puerto Rico/8/1934 H1N1)) (UniProt P03431+P40337); assay: PROTAC activity at Influenza A virus A/WSN/33(H1N1) flag tagged Polymerase basic protein 1/VHL (unknown origin) expressed in HEK293T cells assessed as degradation of PB1 expression at 1 ug/ml incubated for 24 hrs by Western blotting analysis; format: cell-based; conditions: dose 1.0 µg/ml
[6] = target: T1, von Hippel-Lindau disease tumor suppressor/Polymerase basic protein 1 (Influenza A virus (strain A/Puerto Rico/8/1934 H1N1)); assay: PROTAC activity at Influenza A virus A/WSN/33(H1N1) flag tagged Polymerase basic protein 1/VHL (unknown origin) expressed in HEK293T cells assessed as degradation of PB1 expression at 10 ug/ml incubated for 24 hrs by Western blotting analysis; format: cell-based; conditions: dose 10.0 µg/ml
[7] = target: T2, von Hippel-Lindau disease tumor suppressor/Polymerase basic protein 2 (Influenza A virus (strain A/Puerto Rico/8/1934 H1N1)) (UniProt P40337+P03428); assay: PROTAC activity at Influenza A virus A/WSN/33(H1N1) flag tagged Polymerase basic protein 2/VHL (unknown origin) expressed in HEK293T cells assessed as degradation of PB2 expression at 10 ug/ml incubated for 24 hrs by Western blotting analysis; format: cell-based; conditions: dose 10.0 µg/ml
[8] = target: T2, von Hippel-Lindau disease tumor suppressor/Polymerase basic protein 2 (Influenza A virus (strain A/Puerto Rico/8/1934 H1N1)); assay: PROTAC activity at Influenza A virus A/WSN/33(H1N1) flag tagged Polymerase basic protein 2/VHL (unknown origin) expressed in HEK293T cells assessed as degradation of PB2 expression at 1 ug/ml incubated for 24 hrs by Western blotting analysis; format: cell-based; conditions: dose 1.0 µg/ml
[9] = Selectivity index, ratio of CC50 for cytotoxicity against human HEK293T cells to EC50 for anti-influenza activity against Influenza A virus A/WSN/33(H1N1) infected in HEK293T cells assessed as reduction in virus-induced cytopathic effect; format: toxicity, cell-based; conditions: read-out: Ratio CC50/EC50
[10] = tested on: Influenza A virus; assay: Anti-influenza activity against Influenza A virus A/WSN/33(H1N1) infected in HEK293T cells assessed as reduction in virus-induced cytopathic effect incubated for 48 hrs by CCK-8 assay; format: functional, organism-based; conditions: HEK-293T
[11] = target: T3, von Hippel-Lindau disease tumor suppressor/Polymerase acidic protein (Influenza A virus (A/Puerto Rico/8/1934(H1N1))) (UniProt P03433+P40337); assay: PROTAC activity at Influenza A virus A/WSN/33(H1N1) flag tagged Polymerase acidic protein/VHL (unknown origin) expressed in HEK293T cells assessed as degradation of PA expression at 5 uM incubated for 24 hrs by Western blotting analysis; format: cell-based
[12] = target: T3, von Hippel-Lindau disease tumor suppressor/Polymerase acidic protein (Influenza A virus (A/Puerto Rico/8/1934(H1N1))); assay: PROTAC activity at Influenza A virus A/WSN/33(H1N1) flag tagged Polymerase acidic protein/VHL (unknown origin) expressed in HEK293T cells assessed as degradation of PA expression at 10 uM incubated for 24 hrs by Western blotting analysis; format: cell-based
[13] = Stability in human plasma assessed as compound remaining by LC-MS/MS analysis; format: ADME, cell-free
[14] = Stability in human plasma assessed as compound remaining measured after 15 mins by LC-MS/MS analysis; format: ADME, cell-free; conditions: 0.25 h, BLD = below limit of detection
[15] = Half life in human plasma by LC-MS/MS analysis; format: ADME, cell-free
[16] = Stability in human plasma assessed as compound remaining measured after 60 mins by LC-MS/MS analysis; format: ADME, cell-free; conditions: read-out: Stability
[17] = Stability in human plasma assessed as compound remaining measured after 120 mins by LC-MS/MS analysis; format: ADME, cell-free; conditions: 2 h, BLD = below limit of detection
[18] = Stability in human plasma assessed as compound remaining measured after 30 mins by LC-MS/MS analysis; format: ADME, cell-free; conditions: 0.5 h, BLD = below limit of detection
[19] = Stability in human plasma assessed as compound remaining measured after 5 mins by LC-MS/MS analysis; format: ADME, cell-free; conditions: read-out: Stability
[20] = tested on: Influenza B virus; assay: Anti-influenza activity against Influenza B virus Yamagata/16/88 infected in HEK293T cells assessed as reduction in virus-induced cytopathic effect incubated for 48 hrs by CCK-8 assay; format: functional, organism-based; conditions: Yamagata/16/88, HEK-293T
[21] = tested on: Influenza A virus; assay: Anti-influenza activity against Influenza A virus H3N2 infected in HEK293T cells assessed as reduction in virus-induced cytopathic effect incubated for 48 hrs by CCK-8 assay; format: functional, organism-based; conditions: H3N2, HEK-293T
[22] = tested on: Influenza B virus; assay: Anti-influenza activity against Influenza B virus Victoria/2/87 infected in HEK293T cells assessed as reduction in virus-induced cytopathic effect incubated for 48 hrs by CCK-8 assay; format: functional, organism-based; conditions: Victoria/2/87, HEK-293T

| Compound | CC50 at 48 h [4] [nM] | Activity [5] | Activity [6] | Activity [7] | Activity [8] | selectivity ratio [9] | EC50 [10] [nM] | other results |
| --- | --- | --- | --- | --- | --- | --- | --- | --- |
| O=C(c1ccc(F)cc1)C1CCN(CCn2c(=O)[nH]c3ccccc3c2=O)CC1 [KETANSERIN] |  |  |  |  |  |  |  | hepatic extraction ratio at 0.75 h [1]: 0.697; hepatic extraction ratio at 0.75 h [2]: 0.765; hepatic extraction ratio at 0.75 h [3]: 0.693 |
| CC(C)(C)OC(=O)N[C@@H](Cc1c[nH]c2ccccc12)C(=O)NCCCCCCCCCCCC(=O)Nc1ccc(NC(=S)NC(=O)c2ccc(C(C)(C)C)cc2)cc1 | > 100000 | inactive | inactive | inactive | inactive | > 103 | 974 |  |
| CC(C)(C)OC(=O)N[C@@H](Cc1c[nH]c2ccccc12)C(=O)NCCCCCCC(=O)Nc1ccc(NC(=S)NC(=O)c2ccc(C(C)(C)C)cc2)cc1 | > 100000 | inactive | inactive | inactive | inactive | > 592 | 169 |  |
| CC(C)(C)c1ccc(C(=O)NC(=S)Nc2ccc(NC(=O)CCCCCCCCN)cc2)cc1 | 6470 |  |  |  |  | 17.7 | 365 |  |
| CCCCCCCCNC(=O)[C@H](CCCCNC(=O)OC(C)(C)C)NC(=O)OC(C)(C)C |  |  |  |  |  |  |  | Activity [11]: inactive |
| CC(C)(C)OC(=O)/N=C(\NCCC[C@H](NC(=O)OC(C)(C)C)C(=O)NCCCCCCCC(=O)Nc1ccc(NC(=S)NC(=O)c2ccc(C(C)(C)C)cc2)cc1)NC(=O)OC(C)(C)C | > 100000 | inactive | inactive | inactive | inactive | > 267 | 374 |  |
| CC(C)(C)OC(=O)N[C@@H](Cc1c[nH]c2ccccc12)C(=O)Nc1ccc(NC(=S)NC(=O)c2ccc(C(C)(C)C)cc2)cc1 | > 100000 | inactive | inactive | inactive | inactive | > 246 | 407 |  |
| CC(C)(C)OC(=O)N[C@@H](Cc1c[nH]c2ccccc12)C(=O)NCCCCCCCCCC(=O)Nc1ccc(NC(=S)NC(=O)c2ccc(C(C)(C)C)cc2)cc1 | > 100000 | inactive | inactive | inactive | inactive | > 1560 | 64 | Activity [12]: Active |
| CC(C)(C)c1ccc(C(=O)NC(=S)Nc2ccc(NC(=O)CCCCCCCCCN)cc2)cc1 | < 6290 |  |  |  |  | 21.1 | 298 |  |
| CC(C)(C)OC(=O)NCCCC[C@H](NC(=O)OC(C)(C)C)C(=O)NCCCCCCCCCC(=O)Nc1ccc(NC(=S)NC(=O)c2ccc(C(C)(C)C)cc2)cc1 | > 100000 | inactive | inactive | inactive | inactive | > 2220 | 45 | Activity [12]: Active |
| CC(C)(C)c1ccc(C(=O)NC(=S)Nc2ccc(NC(=O)CCCCCCCNC(=O)[C@@H](N)Cc3cnc[nH]3)cc2)cc1 |  |  |  |  |  |  |  | Activity [11]: inactive |
| CC(C)(C)OC(=O)N[C@@H](Cc1c[nH]c2ccccc12)C(=O)NCCCCCC(=O)Nc1ccc(NC(=S)NC(=O)c2ccc(C(C)(C)C)cc2)cc1 | > 100000 | inactive | inactive | inactive | inactive | > 291 | 344 |  |
| CC(C)(C)c1ccc(C(=O)NC(=S)Nc2ccc(NC(=O)CCCCCCCNC(=O)[C@@H](N)CC(N)=O)cc2)cc1 |  |  |  |  |  |  |  | Activity [11]: inactive |
| CC(C)(C)OC(=O)NCCCC[C@H](NC(=O)OC(C)(C)C)C(=O)NCCCCCCC(=O)Nc1ccc(NC(=S)NC(=O)c2ccc(C(C)(C)C)cc2)cc1 | > 100000 | inactive | inactive | inactive | inactive | > 1330 | 75 | Activity [12]: Active |
| CC(C)(C)OC(=O)NCCCC[C@H](NC(=O)OC(C)(C)C)C(=O)NCCOCCOCC(=O)Nc1ccc(NC(=S)NC(=O)c2ccc(C(C)(C)C)cc2)cc1 |  |  |  |  |  |  | > 25000 |  |
| CC(C)(C)c1ccc(C(=O)NC(=S)Nc2ccc(NC(=O)CCCCCCN)cc2)cc1 |  |  |  |  |  |  | > 44000 |  |
| CCN(CC)CCOC(=O)c1ccc(N)cc1 [PROCAINE] |  |  |  |  |  |  |  | Stability [13]: 100%; Stability [14]: Bld; half-life [15]: 1.12 min; remaining at 1 h [16]: 0.1%; Stability [17]: Bld; Stability [18]: Bld; remaining at 5 min [19]: 4.49% |
| CC(C)(C)OC(=O)NCCCC[C@H](NC(=O)OC(C)(C)C)C(=O)NCCCCCCCCCCC(=O)Nc1ccc(NC(=S)NC(=O)c2ccc(C(C)(C)C)cc2)cc1 | 74500 | inactive | inactive | inactive | inactive | 400 | 186 | Activity [12]: Active |
| CC(C)(C)OC(=O)N[C@@H](Cc1c[nH]c2ccccc12)C(=O)NCCCCCCCC(=O)Nc1ccc(NC(=S)NC(=O)c2ccc(C(C)(C)C)cc2)cc1 | > 100000 | inactive | inactive | inactive | inactive | > 2330 | 43 |  |
| CC(C)(C)OC(=O)N[C@@H](Cc1c[nH]c2ccccc12)C(=O)NCCCC(=O)Nc1ccc(NC(=S)NC(=O)c2ccc(C(C)(C)C)cc2)cc1 | 95400 | inactive | inactive | inactive | inactive | 167 | 572 |  |
| CC(C)(C)OC(=O)NCCCC[C@H](NC(=O)OC(C)(C)C)C(=O)NCCCCCCCCCCCC(=O)Nc1ccc(NC(=S)NC(=O)c2ccc(C(C)(C)C)cc2)cc1 | > 100000 | inactive | inactive | inactive | inactive | > 187 | 534 |  |
| NC(=O)c1nc(F)cnc1O [FAVIPIRAVIR] | > 100000 |  |  |  |  | > 18.1 | 8290 | EC50 [20]: > 10000 nM; EC50 [21]: > 10000 nM; EC50 [22]: > 10000 nM |
| CC(C)(C)OC(=O)N[C@@H](Cc1c[nH]c2ccccc12)C(=O)NCCCCCCCCCCC(=O)Nc1ccc(NC(=S)NC(=O)c2ccc(C(C)(C)C)cc2)cc1 | 41800 | inactive | inactive | inactive | inactive | 109 | 383 |  |
| CC(C)(C)c1ccc(C(=O)NC(=S)Nc2ccc(NC(=O)CCCCCCCN)cc2)cc1 |  |  |  |  |  |  | > 43000 |  |
